Consider 7 compounds from PMC12279208, “Targeted Penetrating Motif Engineering of BH3 Mimetic: Harnessing Non‐Canonical Amino Acids for Coinhibition of MCL‐1 and BCL‐xL in Acute Myeloid Leukemia” (Advanced Science, 2025).

One series has as its system AML cells (THP-1). Put plainly: CCK-8 cytotoxicity for selectivity, 24 h. Type of series: cell-based. Conditions: Homo sapiens; THP-1, CCK-8, 24-hour incubation, n = 5. As for the experimental part:
(§1) The IC50 values of peptide drugs were determined in the experiments using the CCK-8 assay after a 24-hour incubation. The human acute leukemia cell line THP-1 was used as the leukemia cell model, while normal HSCs served as the control group. Higher SI values indicate greater selectivity of the peptide for leukemia cells over normal cells.

Series [1] concerns HSCs (CD34+ hematopoietic stem cells from cord blood). Put plainly: CCK-8 cytotoxicity for selectivity, 24 h. Format: cell-based. The following applies: Hematopoietic stem cell; human cord blood CD34+ HSCs, CCK-8, 24-hour incubation, n = 5; read-out: HSC IC50. On the procedure: as §1
In series [2] the test system is AML cells (THP-1) relative to HSCs. The series is described as follows: Selectivity index calculation. Format: cell-based, human. The following applies: n = 5. On the procedure:
The selectivity index (SI) was calculated to assess the specificity of peptide drugs toward leukemia cells relative to normal human HSCs. The SI is defined as the ratio of the IC50 value for HSCs to the IC50 value for leukemia cell lines, as shown in the following formula:
SI=IC50HSCsIC50leukemia cells
as §1

The target in a further series is T1, MCL-1 (Homo sapiens, UniProt Q07820).
T1 construct: purchased BPS Biosciences 79506
T1 sequence (Q07820 whole entry): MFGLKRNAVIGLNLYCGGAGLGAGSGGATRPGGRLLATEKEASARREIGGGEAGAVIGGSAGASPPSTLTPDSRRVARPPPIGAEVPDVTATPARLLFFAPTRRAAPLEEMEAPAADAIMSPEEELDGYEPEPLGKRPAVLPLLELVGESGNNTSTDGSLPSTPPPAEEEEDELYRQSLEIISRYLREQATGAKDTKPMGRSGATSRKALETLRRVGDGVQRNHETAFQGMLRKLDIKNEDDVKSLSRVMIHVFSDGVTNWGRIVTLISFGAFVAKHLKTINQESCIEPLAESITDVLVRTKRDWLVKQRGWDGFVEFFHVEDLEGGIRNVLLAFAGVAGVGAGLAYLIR
Put plainly: Cell-free TR-FRET inhibition of MCL-1 binding to its peptide ligand. The following applies: 3 h at room temperature, 0.25-1000 nM, n = 4. On the procedure: (§2) The inhibition of MCL-1 and BCL-xL binding to their respective ligands was quantified using time-resolved fluorescence resonance energy transfer (TR-FRET) assay kits (BPS Biosciences, Catalog Nos. 79506 and 50223). […] All samples and controls were run in quadruplicate, ensuring a final DMSO concentration below 0.1%. Selected hit compounds were tested at various concentrations: 0.25, 0.5, 1, 2, 4, 8, 16, 32, 64, 125, 500, and 1000 nM. The test assay components were prepared as follows: A 3× MCL TR-FRET assay buffer was diluted with two parts distilled water to create a 1× MCL TR-FRET assay buffer. The anti-His terbium-labeled donor and dye-labeled acceptor were diluted 200-fold in 1× MCL TR-FRET assay buffer. Each well received 5 μL of the anti-His terbium-labeled donor and dye-labeled acceptor mixture. In the negative control wells, 2 μL of inhibitor buffer and 1× MCL-1 TR-FRET assay buffer were added. For the positive control wells, 2 μL of inhibitor buffer and the MCL-1 peptide ligand were added. Subsequently, 2 μL of the diluted test inhibitor solution and the MCL-1 peptide ligand were added to the test inhibitor wells. Finally, 3 μL of diluted MCL-1 protein solution was added to each well, and the plate was incubated at room temperature for 3 hours.
(§3) TR-FRET Ratio=Emission at 665 nmEmission at 620 nm
(§4) The percent activity was calculated as follows:
(§5) Percent Activity=FRETsample-FRETnegFRETp-FRETneg×100%
(§6) where FRETsample is the sample FRET, FRETneg is the negative control FRET, and FRETp is the positive control FRET.
Background: TR-FRET usually uses a lanthanide donor and a delayed reading to cut background.

The next series deals with T2, BCL-xL (Homo sapiens, UniProt Q07817).
T2 construct: His; purchased BPS Biosciences 50223
T2 sequence (Q07817 whole entry): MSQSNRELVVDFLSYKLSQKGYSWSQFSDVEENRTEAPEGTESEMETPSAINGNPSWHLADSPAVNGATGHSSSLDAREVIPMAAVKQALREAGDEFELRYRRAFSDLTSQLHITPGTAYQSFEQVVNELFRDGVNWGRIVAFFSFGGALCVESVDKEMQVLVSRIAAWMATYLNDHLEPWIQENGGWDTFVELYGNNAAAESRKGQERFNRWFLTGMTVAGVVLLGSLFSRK
The series is described as follows: Cell-free TR-FRET inhibition of BCL-xL binding to its peptide ligand. Conditions: 3 h at room temperature, 0.25-1000 nM, n = 4. On the procedure: as §2, §3, §4, §5, §6

The test system of another series is THP-1 cells. Put plainly: Apoptosis detection, Annexin V-FITC/PI flow cytometry. Type of series: cell-based, human. Conditions: THP-1, Venetoclax 0.8 µM, 48 h. On the procedure:
(§7) Cell apoptosis was measured following the manufacturer's instructions for the Annexin V-FITC kit (Elabscience, E-CK-A211-100). 1 × 10⁵ cells were co-cultured with varying concentrations of peptides or Venetoclax in 24-well plates for 48 hours. After incubation, the cells were collected by centrifugation, washed with PBS, and incubated with Annexin V-FITC and PI staining solution for 15 minutes under light-protected conditions. Apoptosis was then identified and analyzed using a flow cytometer (Beckman CytoFLEX, USA)[18].
On the technique in general: In flow cytometry, cells or beads pass a laser one at a time.

The subject of the next series is U-937 cells. The series is described as above. Type of series: cell-based, human. The following applies: U-937, Venetoclax 8 µM, 48 h. On the procedure:
as §7

For series [3], the system named is THP-1 luciferase-transplanted xenografts. The series is described as follows: AML mouse model, THP-1 luciferase xenograft.
Description: To establish the AML mouse model, the animals were intravenously (IV) injected with luciferase-transfected THP-1 cells (THP-1 luciferase; 1 × 10⁶ cells/200 μL). The mice were randomly assigned to one of five experimental groups. […] Venetoclax was formulated for oral administration in a solution comprising 60% phosal 50 propylene glycol (PG), 30% polyethylene glycol (PEG) 400, and 10% ethanol, provided by MedChemExpress[30]. Before administration, both Venetoclax and BH3 peptide stock solutions were freshly diluted to working concentrations with sterile normal saline. The mice were anesthetized and administered 200 µL of a 15 mg/mL luciferase substrate, D-luciferin potassium salt (Beyotime Biotech, ST196-500mg), intraperitoneally. The progression of AML dissemination in mice was monitored until the day of euthanasia using an in vivo optical imaging system (Tanon ABL-X6; Tanon, Shanghai, China). The results were expressed as total flux (photons/s; radiance photons) ± standard deviation (SD) in both in vivo and ex vivo studies. The extent of the leukemia burden was determined by flow cytometry of peripheral blood human CD45+ cells. During the third and fourth weeks of the study, blood was collected from the orbital sinuses of mice in each group. […] Flow cytometry was employed to ascertain the expression of hCD45 in PBMCs. […] Following the completion of the designated treatment period, five mice from each group were randomly selected and euthanized by CO₂ asphyxiation. […] The bone marrow (from the tibia and femur), spleen, and liver were minced and made into single-cell suspensions in PBS, followed by red blood cell lysis. The cells were then stained with hCD45-PE antibody and analyzed by flow cytometry.
Liver, lung, kidney, spleen, and left femur tissues were formalin-fixed and paraffin-embedded. Bone tissue was decalcified with 10% EDTA decalcification solution prior to paraffin embedding. Paraffin blocks were then sectioned at 2-4 μm thickness and mounted on microscope slides. Tissue sections were deparaffinized and rehydrated using 100% xylene and ethanol solutions of decreasing concentrations.

Square brackets hold non-standard residues; d marks the D form. Peptide text beside a SMILES is read from it. Bpa = N[C@@H](Cc1ccc(C(=O)c2ccccc2)cc1)C(=O)O; Phe(4-Me) = Cc1ccc(C[C@H](N)C(=O)O)cc1; Met(O2) = CS(=O)(=O)CC[C@H](N)C(=O)O; Chg = N[C@H](C(=O)O)C1CCCCC1

What is called IC50 is the concentration that gives 50% inhibition. Take `Cc1cc2c(C(C)C)c(O)c(O)c(C=O)c2c(O)c1-c1c(C)cc2c(C(C)C)c(O)c(O)c(C=O)c2c1O` [AT-101, (R)-(-)-Gossypol]: the IC50 in the series on AML cells (THP-1) was 18.9 µM; in series [1], 67.7 µM. The “Selectivity index (SI) combined with Venetoclax” value in series [2] (IC50 HSCs / IC50 THP-1, in combination with Venetoclax (concentration not given)) is 3.85. Moreover, the “Selectivity index (SI)” value in series [2] (IC50 HSCs / IC50 leukemia cells (THP-1), single agent) was 3.56.

Consider `CC[C@H](C)[C@H](NC(=O)[C@H](CCCNC(=N)N)NC(=O)[C@H](CCCNC(=N)N)NC(=O)[C@H](CC(C)C)NC(=O)[C@H](CCC(=O)O)NC(=O)[C@H](CCC(N)=O)NC(=O)[C@H](C)NC(=O)[C@@H](NC(=O)[C@H](Cc1c[nH]c2ccccc12)NC(=O)[C@H](CCS(C)(=O)=O)NC(=O)[C@H](Cc1ccc(C(=O)c2ccccc2)cc1)NC(=O)[C@@H]1CCCN1)C1CCCCC1)C(=O)NCC(=O)N[C@@H](CC(=O)O)C(=O)N[C@@H](CCC(=O)O)C(=O)N[C@@H](Cc1ccc(C)cc1)C(=O)N[C@@H](CC(N)=O)C(=O)N[C@@H](C)C(=O)N[C@@H](Cc1ccc(O)cc1)C(=O)N[C@@H](Cc1ccc(O)cc1)C(=O)N[C@@H](C)C(N)=O` [B] (H-P[Bpa][Met(O2)]W[Chg]AQELRRIGDE[Phe(4-Me)]NAYYA-NH2), for which the 50% inhibitory concentration (IC50) turned out to be 122 nM at MCL-1 and 412 nM on BCL-xL.

On to `CC[C@H](C)[C@H](NC(=O)[C@H](CCCNC(=N)N)NC(=O)[C@H](CCCNC(=N)N)NC(=O)[C@H](CC(C)C)NC(=O)[C@H](CCC(=O)O)NC(=O)[C@H](CCC(N)=O)NC(=O)[C@H](C)NC(=O)[C@@H](NC(=O)[C@H](Cc1c[nH]c2ccccc12)NC(=O)[C@H](CCS(C)(=O)=O)NC(=O)[C@H](CCC(=O)O)NC(=O)[C@@H]1CCCN1)C1CCCCC1)C(=O)NCC(=O)N[C@@H](CC(=O)O)C(=O)N[C@@H](CCC(=O)O)C(=O)N[C@@H](Cc1ccc(C)cc1)C(=O)N[C@@H](CC(N)=O)C(=O)N[C@@H](C)C(=O)N[C@@H](Cc1ccc(O)cc1)C(=O)N[C@@H](Cc1ccc(O)cc1)C(=O)N[C@@H](C)C(N)=O` [C] (H-PE[Met(O2)]W[Chg]AQELRRIGDE[Phe(4-Me)]NAYYA-NH2), for which the figures for the IC50 on MCL-1 and on BCL-xL were 48.9 nM and 278 nM, respectively.

On to `CC[C@H](C)[C@H](NC(=O)[C@H](CCCNC(=N)N)NC(=O)[C@H](CCCNC(=N)N)NC(=O)[C@H](CC(C)C)NC(=O)[C@H](CCC(=O)O)NC(=O)[C@H](CCC(N)=O)NC(=O)[C@H](C)NC(=O)[C@@H](NC(=O)[C@H](Cc1c[nH]c2ccccc12)NC(=O)[C@@H](NC(=O)[C@H](CCC(=O)O)NC(=O)[C@@H]1CCCN1)[C@@H](C)CC)C1CCCCC1)C(=O)NCC(=O)N[C@@H](CC(=O)O)C(=O)N[C@@H](CCC(=O)O)C(=O)N[C@@H](Cc1ccc(C)cc1)C(=O)N[C@@H](CC(N)=O)C(=O)N[C@@H](C)C(=O)N[C@@H](Cc1ccc(O)cc1)C(=O)N[C@@H](Cc1ccc(O)cc1)C(=O)N[C@@H](C)C(N)=O` [D] (H-PEIW[Chg]AQELRRIGDE[Phe(4-Me)]NAYYA-NH2), for which the IC50 at MCL-1 turned out to be 25.4 nM; on BCL-xL, 58.5 nM.

Regarding `CC[C@H](C)[C@H](NC(=O)[C@H](CCCNC(=N)N)NC(=O)[C@H](CCCNC(=N)N)NC(=O)[C@H](CC(C)C)NC(=O)[C@H](CCC(=O)O)NC(=O)[C@H](CCC(N)=O)NC(=O)[C@H](C)NC(=O)[C@@H](NC(=O)[C@H](Cc1c[nH]c2ccccc12)NC(=O)[C@@H](NC(=O)[C@H](CCC(=O)O)NC(=O)[C@@H]1CCCN1)[C@@H](C)CC)C1CCCCC1)C(=O)NCC(=O)N[C@@H](CC(=O)O)C(=O)N[C@@H](CCC(=O)O)C(=O)N[C@@H](Cc1ccccc1)C(=O)N[C@@H](CC(N)=O)C(=O)N[C@@H](C)C(=O)N[C@@H](Cc1ccc(O)cc1)C(=O)N[C@@H](Cc1ccc(O)cc1)C(=O)N[C@@H](C)C(N)=O` [F] (H-PEIW[Chg]AQELRRIGDEFNAYYA-NH2), the concentration for half-maximal inhibition (IC50) at MCL-1 was determined as 9.77 nM; on BCL-xL it was 30.8 nM.

On to `CC[C@H](C)[C@H](NC(=O)[C@H](CCCNC(=N)N)NC(=O)[C@H](CCCNC(=N)N)NC(=O)[C@H](CC(C)C)NC(=O)[C@H](CCC(=O)O)NC(=O)[C@H](CCC(N)=O)NC(=O)[C@H](C)NC(=O)[C@@H](NC(=O)[C@H](Cc1c[nH]c2ccccc12)NC(=O)[C@H](CCS(C)(=O)=O)NC(=O)[C@H](Cc1ccc(C(=O)c2ccccc2)cc1)NC(=O)[C@@H]1CCCN1)[C@@H](C)CC)C(=O)NCC(=O)N[C@@H](CC(=O)O)C(=O)N[C@@H](CCC(=O)O)C(=O)N[C@@H](Cc1ccc(C)cc1)C(=O)N[C@@H](CC(N)=O)C(=O)N[C@@H](C)C(=O)N[C@@H](Cc1ccc(O)cc1)C(=O)N[C@@H](Cc1ccc(O)cc1)C(=O)N[C@@H](C)C(N)=O` [G] (H-P[Bpa][Met(O2)]WIAQELRRIGDE[Phe(4-Me)]NAYYA-NH2), for which the IC50 came out at 206 nM on MCL-1 and 565 nM at BCL-xL.

With `CC1(C)CCC(CN2CCN(c3ccc(C(=O)NS(=O)(=O)c4ccc(NCC5CCOCC5)c([N+](=O)[O-])c4)c(Oc4cnc5[nH]ccc5c4)c3)CC2)=C(c2ccc(Cl)cc2)C1` [Venetoclax], the Apoptosis in the series on THP-1 cells was 47.3%; in the series on U-937 cells, 49.3%. In series [3] (30 days, same regimens, n = 12, Vehicle ≈19 g), the “Average body weight at study end” value is “≈ 20 g”. Moreover, the “Bioluminescence (tumor burden) over 30 days” value in series [3] (Venetoclax 25 mg kg−1 p.o., TAT-I or vMIP-II-TAT-I 1.5 µmol kg−1 i.v., Combination both, every 2 days, n = 5) is “minimal therapeutic efficacy”. Besides, the Median survival in series [3] (Venetoclax 25 mg kg−1 p.o., TAT-I or vMIP-II-TAT-I 1.5 µmol kg−1 i.v., Combination both, every 2 days, n = 7, Vehicle 35 days) stood at 37 days. Moreover, in series [3] (week 3, flow cytometry, n = 5, Vehicle ≈7%), the “hCD45+ cells in PBMCs” value is on record as “≈ 5%”.
